Laboratory results as given in paper PMC7155171, “Probing the Open Global Health Chemical Diversity Library for Multistage-Active Starting Points for Next-Generation Antimalarials” (ACS Infectious Diseases, 2020).
Like-named read-outs stand apart in the source and are kept apart here.

What was measured:
[1] = system: P. falciparum Dd2 (PfLuc) line expressing firefly luciferase, asexual blood stage; assay: microbe, parasite or virus in culture; type: cell-based, Plasmodium falciparum; settings: for IC50 / Emax: Plasmodium falciparum
P. falciparum Dd2 = assay: SYBR green I asexual blood stage proliferation assay (96 h); type: cell-based, Plasmodium falciparum; settings: Plasmodium falciparum, DD2, 11-pt dose response, 96hr
[2] = DD2, read-out: CDD P. falciparum Luciferase ABS 11-pt Reconfirmation Dose Response (48hr): IC50 (μM), 11-pt dose response, 48hr
[3] = DD2, 8-pt dose response, 96hr, read-out: CDD P. falciparum Luciferase ABS 8-pt Reconfirmation Dose Response (96hr): IC50
[4] = DD2, 8-pt dose response, 96hr, read-out: CDD P. falciparum Luciferase ABS 8-pt Reconfirmation Dose Response (96hr): Maximum inhibition (%)
[5] = DD2, 11-pt dose response, 48hr, read-out: CDD P. falciparum Luciferase ABS 11-pt Reconfirmation Dose Response (48hr): Maximum inhibition (%)
[6] = DD2, 11-pt dose response, 96hr, read-out: CDD P. falciparum Luciferase ABS 11-pt Reconfirmation Dose Response (96hr): IC50
[7] = DD2, 11-pt dose response, 96hr, read-out: CDD P. falciparum Luciferase ABS 11-pt Reconfirmation Dose Response (96hr): Maximum inhibition (%)
[8] = Sybr Green I, read-out: CDD P. falciparum Sybr Green I ABS 11-pt Reconfirmation Dose Response (96hr): IC50
[9] = Sybr Green I, read-out: CDD P. falciparum Sybr Green I ABS 11-pt Reconfirmation Dose Response (96hr): Maximum inhibition (%)
[10] = DD2, read-out: P. falciparum Luciferase ABS 11-pt Reconfirmation Dose Response (48hr): IC50, 11-pt dose response, 48hr
[11] = DD2, 8-pt dose response, 96hr, read-out: P. falciparum Luciferase ABS 8-pt Reconfirmation Dose Response (96hr): IC50
[12] = DD2, 11-pt dose response, 48hr, read-out: P. falciparum Luciferase ABS 11-pt Reconfirmation Dose Response (48hr): Maximum inhibition (%)
[13] = DD2, 11-pt dose response, 96hr, read-out: P. falciparum Luciferase ABS 11-pt Reconfirmation Dose Response (96hr): IC50
[14] = DD2, 11-pt dose response, 96hr, read-out: P. falciparum Luciferase ABS 11-pt Reconfirmation Dose Response (96hr): Maximum inhibition (%)
[15] = read-out: P. falciparum Sybr Green I ABS 11-pt Reconfirmation Dose Response (96hr): IC50
[16] = read-out: P. falciparum Sybr Green I ABS 11-pt Reconfirmation Dose Response (96hr): Maximum inhibition (%)
[17] = DD2, 8-pt dose response, 96hr, read-out: P. falciparum Luciferase ABS 8-pt Reconfirmation Dose Response (96hr): Maximum inhibition (%)

| Compound | IC50 [1, 2] [µM] | IC50 [1, 3] [µM] | Emax [1, 4] [%] | Emax [1, 5] [%] | IC50 [1, 6] [µM] | Emax [1, 7] [%] | IC50 (P. falciparum Dd2; [8]) [nM] | Emax (P. falciparum Dd2; [9]) [%] | IC50 [1, 10] [µM] | IC50 [1, 11] [µM] | Emax [1, 12] [%] | IC50 [1, 13] [µM] | Emax [1, 14] [%] | IC50 (P. falciparum Dd2; [15]) [nM] | Emax (P. falciparum Dd2; [16]) [%] | Emax [1, 17] [%] | activity in ABS screens [1] |
| --- | --- | --- | --- | --- | --- | --- | --- | --- | --- | --- | --- | --- | --- | --- | --- | --- | --- |
| Fc1ccc(CN2CCC3(CC2)CCN(Cc2nccs2)CC3)cc1 [DDD01031337] | 8.85 | 0.78 | 88.8 | 69.4 | 1.46 | 87.9 | > 1390 | 71.7 | – | – | – | – | – | – | – | – | – |
| Cc1ccc(CN2CCC3(CC2)CCN(Cc2ccoc2)CC3)cc1 [DDD01031590] | 2.04 | 0.24 | 94.3 | 86.7 | 0.444 | 99.4 | 2330 | – | – | – | – | – | – | – | – | – | – |
| Cc1ccc(CN2CCC3(CC2)CCN(Cc2ccco2)CC3)cc1 [DDD01031591] | 7.27 | 0.77 | – | 74.1 | 0.938 | 94.4 | 6720 | 84.1 | – | – | – | – | – | – | – | – | – |
| CN1[C@H](Cn2cccn2)C[C@@H]2CN(Cc3cccs3)CC[C@@H]21 [DDD01032287] | > 12.5 | 0.77 | 80.2 | 45.9 | > 1.39 | 85.9 | > 4160 | 67.6 | – | – | – | – | – | – | – | – | – |
| c1cncc(N2CCCC3(CCN(CCN4CCCC4)CC3)C2)c1 [DDD01032557] | – | – | – | – | – | – | – | – | 7.21 | 1.19 | 83.2 | 1.41 | 99.7 | 2440 | 93.7 | – | – |
| CN(C)[C@@H]1CCN(c2ncc(F)cn2)[C@H]1Cc1ccccc1 [DDD01033375] | 5.55 | 1.11 | 86.7 | 53.2 | 2.25 | 86.9 | > 4160 | 74.6 | – | – | – | – | – | – | – | – | – |
| CCN1CCC2(CC1)CC(NCc1cccs1)c1ccccc1O2 (stereo not shown) [DDD01034117] | 2.44 | 0.39 | 91.4 | 72.4 | 0.515 | 91.9 | 3400 | 78.6 | – | – | – | – | – | – | – | – | – |
| CCN1CCC2(CC1)CC(NCc1cccc(C)n1)c1ccccc1O2 (stereo not shown) [DDD01034133] | 11.7 | 0.72 | – | 67.5 | 3.23 | 88.1 | 10300 | 79.5 | – | – | – | – | – | – | – | – | – |
| CCN1CCC2(CC1)CC(NCc1ccncc1)c1ccccc1O2 (stereo not shown) [DDD01034171] | > 12.5 | 0.75 | 87.7 | 61.8 | 3.05 | 86 | > 4160 | 74 | – | – | – | – | – | – | – | – | – |
| COc1ccc(N2CCCC3(C2)CN(c2nncs2)CCO3)cc1 (stereo not shown) [DDD01034473] | 0.758 | 0.2 | 95 | – | 0.451 | 97.9 | 830 | 95.3 | – | – | – | – | – | – | – | – | – |
| CCOc1ccc(Br)cc1C1CCCCN1 (stereo not shown) [DDD01034784] | > 12.5 | 0.81 | 86.8 | 60 | > 1.39 | 90.9 | 2780 | 65.2 | – | – | – | – | – | – | – | – | – |
| CCOc1ccc(Br)cc1C1CCCN1 (stereo not shown) [DDD01034787] | 4.88 | 0.85 | 85.8 | 59.1 | 1.38 | 86.3 | 7590 | 78.7 | – | – | – | – | – | – | – | – | – |
| Cc1c(C)n(CC(O)CN2CCN(CCO)CC2)c2c(Cl)cccc12 (stereo not shown) [DDD01034970] | – | – | – | – | – | – | – | – | 3.79 | 1.15 | 86.8 | 2.24 | 95.9 | > 4160 | 73.1 | 85.4 | – |
| CC(N)Cc1ccccc1Sc1ccccc1 (stereo not shown) [DDD01035540] | – | – | – | – | – | – | – | – | 3.57 | 1.63 | 89.6 | 0.558 | 98.2 | 4170 | 86.1 | 92 | – |
| c1ccc(Sc2ccc3c(c2)OCO3)c(CNC2=NCCN2)c1 [DDD01035544] | 7.86 | 1.05 | 85.5 | 75 | 1.67 | 95.1 | > 4160 | 65.9 | – | – | – | – | – | – | – | – | – |
| CN(C)[C@@H]1CCN(c2ncccn2)[C@H]1Cc1ccccc1 [DDD01036700] | > 12.5 | 0.85 | 85.6 | 47.6 | 2.4 | 80.9 | > 4160 | 74.7 | – | – | – | – | – | – | – | – | – |
| CC(O)c1cccc(Nc2nc(NCCO)c3ccccc3n2)c1 (stereo not shown) [DDD01037968] | 2.9 | 0.29 | 92.4 | 96.3 | 0.739 | 99.6 | 3130 | 95.8 | – | – | – | – | – | – | – | – | active in ABS screens |
| CCN(CC)CCNS(=O)(=O)c1cccc(CSC)c1 [DDD01038216] | 10.2 | 0.58 | 87.3 | 58.8 | 2.99 | 89.5 | 7550 | 73.7 | – | – | – | – | – | – | – | – | – |
| Oc1ccc(Cl)cc1CNCc1ccccc1Cl [DDD01038243] | > 12.5 | 1.02 | 90.3 | 59.4 | 4.2 | 88.4 | > 12500 | 34.6 | – | – | – | – | – | – | – | – | – |
| Oc1ccc(Cl)cc1CNCc1cccc(C(F)(F)F)c1 [DDD01038245] | > 4.16 | 0.82 | 91.9 | 64 | 10.6 | 79.2 | 3030 | 95.3 | – | – | – | – | – | – | – | – | – |
| Cc1ccccc1CNCc1cc(Cl)ccc1O [DDD01038246] | 11 | 0.64 | 92.4 | 69.3 | 5.6 | 89.5 | 2600 | 97.5 | – | – | – | – | – | – | – | – | – |
| COc1cccc(CNCc2ccccc2Cl)c1O [DDD01038247] | 7.91 | 0.9 | 89.5 | 79.1 | 1.97 | 96.2 | 5220 | 87.5 | – | – | – | – | – | – | – | – | – |
